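How tested: cells in 96-well plates exposed to compound for 48 hours at five concentrations. GI50 marks 50% less growth.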 Calls of active or inactive are those of the source. No stated cut-off is given here; in the data, active = GI50 up to about 1.1 µM and inactive = higher.
Key:
Test in all cases: growth of human tumour cells (NCI), 48 h
LXFL 529 = test system: LXFL 529
SK-MEL-2 = test system: SK-MEL-2
DMS-114 = test system: DMS-114
OVCAR-3 = test system: OVCAR-3
CCRF-CEM = test system: CCRF-CEM
XF498 = test system: XF498
A498 = test system: A498
UACC-257 = test system: UACC-257
NCI-H226 = test system: NCI-H226
K562 = test system: K562
RXF 393 = test system: RXF 393
SK-MEL-28 = test system: SK-MEL-28
NCI-H460 = test system: NCI-H460
Malme-3M = test system: Malme-3M
HCC 2998 = test system: HCC 2998
SNB-19 = test system: SNB-19
A549 = test system: A549
LOX IMVI = test system: LOX IMVI
UO-31 = test system: UO-31
M19-MEL = test system: M19-MEL
HCT-116 = test system: HCT-116
U-251 = test system: U-251
OVCAR-4 = test system: OVCAR-4
SK-MEL-5 = test system: SK-MEL-5
HCT-15 = test system: HCT-15
HOP-62 = test system: HOP-62
DLD-1 = test system: DLD-1
UACC-62 = test system: UACC-62
ACHN = test system: ACHN
EKVX = test system: EKVX
786-0 = test system: 786-0
SF-295 = test system: SF-295
TK-10 = test system: TK-10
CAKI-1 = test system: CAKI-1
HT-29 = test system: HT-29
HOP-92 = test system: HOP-92
OVCAR-8 = test system: OVCAR-8
IGROV-1 = test system: IGROV-1
KM-20L2 = test system: KM-20L2
SNB-75 = test system: SNB-75
HL-60 = test system: HL-60
SN12C = test system: SN12C
KM12 = test system: KM12
OVCAR-5 = test system: OVCAR-5
M14 = test system: M14
SF-268 = test system: SF-268
SW-620 = test system: SW-620
SNB-78 = test system: SNB-78
DMS-273 = test system: DMS-273
SK-OV-3 = test system: SK-OV-3
NCI-H23 = test system: NCI-H23
COLO 205 = test system: COLO 205
NCI-H522 = test system: NCI-H522
RPMI-8226 = test system: RPMI-8226
MOLT-4 = test system: MOLT-4

`O=c1/c(=C/c2cccc([N+](=O)[O-])c2)sc2nc3ccccc3n12` was tested, and the GI50 (LXFL 529) was > 100 µM (inactive), the GI50 (SK-MEL-2) was > 100 µM (inactive) and the GI50 (DMS-114) was > 100 µM (inactive). The GI50 (OVCAR-3) was > 10 µM (inactive), the GI50 (CCRF-CEM) was > 100 µM (inactive) and the GI50 (XF498) was > 100 µM (inactive). The GI50 (A498) was > 100 µM (inactive), the GI50 (UACC-257) was 4.71 µM (inactive) and the GI50 (NCI-H226) was > 100 µM (inactive). The GI50 (K562) was > 100 µM (inactive), the GI50 (RXF 393) was > 100 µM (inactive) and the GI50 (SK-MEL-28) was 35.6 µM (inactive). The GI50 (NCI-H460) was > 100 µM (inactive), the GI50 (Malme-3M) was > 100 µM (inactive) and the GI50 (HCC 2998) was 50.8 µM (inactive). The GI50 (SNB-19) was > 10 µM (inactive), the GI50 (A549) was > 10 µM (inactive) and the GI50 (LOX IMVI) was 6.73 µM (inactive). The GI50 (UO-31) was > 100 µM (inactive), the GI50 (M19-MEL) was > 100 µM (inactive) and the GI50 (HCT-116) was 37.3 µM (inactive). The GI50 (U-251) was > 10 µM (inactive), the GI50 (OVCAR-4) was 52.4 µM (inactive) and the GI50 (SK-MEL-5) was > 10 µM (inactive). For the same compound, the GI50 (HCT-15) was > 100 µM, the GI50 (HOP-62) was > 100 µM (inactive) and the GI50 (DLD-1) was > 100 µM (inactive). The GI50 (UACC-62) was 0.446 µM (active), the GI50 (ACHN) was 84.7 µM (inactive) and the GI50 (EKVX) was 58.7 µM (inactive). For the same compound, the GI50 (786-0) was > 100 µM (inactive), the GI50 (SF-295) was > 10 µM (inactive) and the GI50 (TK-10) was > 100 µM (inactive). The GI50 (CAKI-1) was > 10 µM (inactive), the GI50 (HT-29) was > 100 µM (inactive) and the GI50 (HOP-92) was > 10 µM (inactive). For the same compound, the GI50 (OVCAR-8) was > 100 µM (inactive), the GI50 (IGROV-1) was > 10 µM (inactive) and the GI50 (KM-20L2) was > 10 µM (inactive). The GI50 (SNB-75) was 32.8 µM (inactive), the GI50 (HL-60) was > 100 µM (inactive) and the GI50 (SN12C) was > 100 µM (inactive). For the same compound, the GI50 (KM12) was > 100 µM (inactive), the GI50 (OVCAR-5) was > 100 µM (inactive) and the GI50 (M14) was 55.1 µM (inactive). For the same compound, the GI50 (SF-268) was 39.2 µM (inactive), the GI50 (SW-620) was > 100 µM (inactive) and the GI50 (SNB-78) was > 100 µM (inactive). For the same compound, the GI50 (DMS-273) was > 100 µM (inactive), the GI50 (SK-OV-3) was 67.8 µM (inactive) and the GI50 (NCI-H23) was > 100 µM (inactive).

In the case of `O=C1N[C@H](Cc2c[nH]cn2)C(=O)N2CCC[C@@H]12`, the GI50 (LXFL 529) was > 100 µM (inactive), the GI50 (SK-MEL-2) was > 100 µM (inactive) and the GI50 (DMS-114) was > 100 µM (inactive). For the same compound, the GI50 (OVCAR-3) was > 100 µM (inactive), the GI50 (COLO 205) was > 100 µM (inactive) and the GI50 (CCRF-CEM) was > 100 µM (inactive). For the same compound, the GI50 (XF498) was > 100 µM (inactive), the GI50 (UACC-257) was > 100 µM (inactive) and the GI50 (K562) was > 100 µM (inactive). For the same compound, the GI50 (RXF 393) was > 100 µM (inactive), the GI50 (SK-MEL-28) was > 100 µM (inactive) and the GI50 (NCI-H460) was > 100 µM (inactive). The GI50 (Malme-3M) was > 100 µM (inactive), the GI50 (HCC 2998) was > 100 µM (inactive) and the GI50 (SNB-19) was > 100 µM (inactive). For the same compound, the GI50 (A549) was > 100 µM (inactive), the GI50 (LOX IMVI) was > 100 µM (inactive) and the GI50 (UO-31) was > 100 µM (inactive). For the same compound, the GI50 (M19-MEL) was > 100 µM (inactive), the GI50 (NCI-H522) was > 100 µM (inactive) and the GI50 (OVCAR-4) was > 100 µM (inactive). The GI50 (RPMI-8226) was > 100 µM (inactive), the GI50 (SK-MEL-5) was > 100 µM (inactive) and the GI50 (HCT-15) was > 100 µM. For the same compound, the GI50 (HOP-62) was > 100 µM (inactive), the GI50 (DLD-1) was > 100 µM (inactive) and the GI50 (UACC-62) was > 100 µM (inactive). For the same compound, the GI50 (ACHN) was > 100 µM (inactive), the GI50 (EKVX) was > 100 µM (inactive) and the GI50 (786-0) was > 100 µM (inactive). For the same compound, the GI50 (SF-295) was > 100 µM (inactive), the GI50 (TK-10) was > 100 µM (inactive) and the GI50 (CAKI-1) was > 100 µM (inactive). The GI50 (HOP-92) was > 100 µM (inactive), the GI50 (OVCAR-8) was > 100 µM (inactive) and the GI50 (IGROV-1) was > 100 µM (inactive). The GI50 (KM-20L2) was > 100 µM (inactive), the GI50 (SNB-75) was 65.8 µM (inactive) and the GI50 (HL-60) was > 100 µM (inactive). For the same compound, the GI50 (SN12C) was > 100 µM (inactive), the GI50 (KM12) was > 100 µM (inactive) and the GI50 (OVCAR-5) was > 100 µM (inactive). The GI50 (M14) was > 100 µM (inactive), the GI50 (SF-268) was > 100 µM (inactive) and the GI50 (SW-620) was > 100 µM (inactive). The GI50 (SNB-78) was > 100 µM (inactive), the GI50 (MOLT-4) was > 100 µM (inactive) and the GI50 (DMS-273) was > 100 µM (inactive). The GI50 (SK-OV-3) was > 100 µM (inactive) and the GI50 (NCI-H23) was > 100 µM (inactive).
